The values below come from patent publication US20260125675A1, “DOWNREGULATING TROLLS USING NOVEL ANTISENSE OLIGONUCLEOTIDES TO OVERCOME RESISTANCE TO CHEMOTHERAPY” (H. LEE MOFFITT CANCER CENTER AND RESEARCH INSTITUTE, INC., priority 2022, published 2026).

Common to all, as to type: cell-based, human
Common to all, as to details: treated 72 hr

One assay concerns AKT. The assay is described as follows: Western blot of phosphorylated and total AKT in drug-treated CAID cells. The method, then: (§1) 195. We were interested in determining the effect of treatment with adriamycin, docetaxel, or paclitaxel on the levels of TOLL-2 and TROLL-3. qRT-PCR was performed for TROLL-2 and TROLL-3 in CAID cells treated with the indicated drugs for 72 hr. Western blosts of the levels of phosphorylated and total AKT, and relative quantification were determined (FIG. 1). […] We next observed that the levels of TROLL-3 are higher in lung adenocarcinoma (LUAD) with EGFR mutations with EGFR mutations in 2 distinct cohorts of patients (the TCGA cohort and Moffitt cohort) (FIGS. 2 and 3). Next we looked at the association association between pAKT levels and resistance to treatment in a panel of LUAD cell lines. Western blot levels of phosphorylated and total AKT in the indicated cell lines. Red boxes denote cell lines where PAKT levels are higher in the cells resistant to the indicated inhibitors compared to the respective parental cells (FIG. 4). Such increase in pAKT levels is associated with the resistance to anti-cancer treatment. To see the effect of TROLL-2 or TROLL-3 downregulation of pAKT levels in LUAD cells, we prefromed western blosts of the lvels of phosphorylated and total AKT in parental and KRASi resistant or EGFRi resistant cells using untreated on siRNA knockdown of TROLL-2 or TROLL-3 (FIGS. 5 and 6). We observed that downregulation of TROLL-2 or TROLL-3 reduces pAKT levels in KRASi and EGFRi resistant LUAD cells. Next we identified antisense LNA GapmeRs targeting TROLL-2 and TROLL-3 (50 nM-2 experiments). We used […]-PCR (qRT-PCR) for TROLL-2 and TROLL-3 in CAID cells treated with the indicated Antisense LNA GapmeRs for 48 hr. The following reagents were purchased from Qiagen: negative control=LG00000002-DDB, TROLL-2 A=LG00807687-DDB. TROLL-2 B=LG00807688-DDB, TROLL-2 C=LG00807689-DDB. TROLL-2 D=LG00807691-DDB, TROLL-2 E=LG00807694-DDB, TROLL-3 A=LG00807697-DDB, TROLL-3 B=LG00807698-DDB, TROLL-3 C=LG00807699-DDB, TROLL-3 D=LG00807700-DDB, and TROLL-3 E=LG00807701-DDB (FIG. 7). […]
Background: Immunoblotting shows a protein as a band on a membrane.

The subject of a further assay is TROLL-2. The assay is described as follows: qRT-PCR for TROLL-2 in CAID cells treated with the indicated drugs. The protocol: as §1
For a further assay, the system named is TROLL-3. The assay is described as follows: qRT-PCR for TROLL-3 in CAID cells treated with the indicated drugs. The protocol: as §1
In general terms: In qPCR the cycle at which signal appears reflects the starting amount.

On to `COc1cccc2c1C(=O)c1c(O)c3c(c(O)c1C2=O)C[C@@](O)(C(=O)CO)C[C@@H]3O[C@H]1C[C@H](N)[C@H](O)[C@H](C)O1` [adriamycin], for which the “AKT pathway activation (phosphorylated and total AKT, western blot)” value (“AKT pathway activation” below) with AKT was “activation of the AKT pathway”. Further, the “levels of TROLL-2 (qRT-PCR)” value in the assay with TROLL-2 is “increases”. Besides, the “levels of TROLL-3 (qRT-PCR)” value in the assay on TROLL-3 is recorded as “increases”.
In the case of `CC(=O)O[C@@]12CO[C@@H]1C[C@H](O)[C@@]1(C)C(=O)[C@H](O)C3=C(C)[C@@H](OC(=O)[C@H](O)[C@@H](NC(=O)OC(C)(C)C)c4ccccc4)C[C@@](O)([C@@H](OC(=O)c4ccccc4)[C@H]21)C3(C)C` [docetaxel], in the assay on AKT, the “AKT pathway activation” value was “activation of the AKT pathway”. Also, the “levels of TROLL-2 (qRT-PCR)” value with TROLL-2 is given as “increases”. Further, the “levels of TROLL-3 (qRT-PCR)” value with TROLL-3 was “increases”.
As for `CC(=O)O[C@H]1C(=O)[C@@]2(C)[C@H]([C@H](OC(=O)c3ccccc3)[C@]3(O)C[C@H](OC(=O)[C@H](O)[C@@H](NC(=O)c4ccccc4)c4ccccc4)C(C)=C1C3(C)C)[C@]1(OC(C)=O)CO[C@@H]1C[C@@H]2O` [paclitaxel], the “AKT pathway activation” value with AKT is given as “activation of the AKT pathway”. The “levels of TROLL-2 (qRT-PCR)” value with TROLL-2 was “increases”. In the assay with TROLL-3, the “levels of TROLL-3 (qRT-PCR)” value is on record as “increases”.
